Experimental data published in patent US20250197387A1, “BCL-XL DEGRADERS AND USES THEREOF” (Kymera Therapeutics, Inc., priority 2021, published 2025).

Biological target: T1, BCL-XL (Homo sapiens, UniProt Q07817)
T1 construct: endogenous in cells; host or cells: MOLT-4
Experiment: BCL-XL degradation assay, western blot in MOLT-4 cells, 16 h
Type: cell-based
Conditions: western blot, MOLT-4 cells, 16 h; for Dmax: read-out: Bcl-xL WB in MOLT-4 degradation 16 h: Average Dmax %; for DC50: read-out: Bcl-xL WB in MOLT-4 degradation 16 h: Mean external-Abs DC50
Description: Compounds treatment: compounds were reconstituted in DMSO to make a stock concentration of 10 mM. MOLT-4 cells were maintained in RPMI-1640+10% FBS+1% Penicillin-Streptomycin. Cells were seeded into 6-well plates in 2 mL at the seeding density of 2e6 cells/mL. Compounds were added to the cells to a final concentration ranging 0.02-10 μM. After 16 hr incubation at 37° C., in a CO2 incubator, cells were collected in an Eppendorf tube and centrifuged at 200×g for 5 minutes, the supernatant removed and pellets washed with ice-cold PBS, centrifuged and supernatant removed again. Then. 50 μl of pre-chilled RIPA lysis buffer (Boston BioProducts. BP-115D) with protease and phosphatase inhibitors (Roche Applied Science. #04906837001 and #04693116001) was added into cell pellet to lyze the cells for 20 minutes under 4° C. Cell lysates were spin at 13000 rpm for 10 minutes. Supernatants were collected and protein concentration was measured by BCA assay kit (Solarbio. PC0020-500) following the manufacturer's protocol. Samples' final protein concentration was adjusted to 3.75 μg/uL with the RIPA lysis buffer based on BCA assay results and 4× loading buffer (Invitrogen. NP0007) was added into the samples and samples were heated to 85° C., for 10 min and then let cool at RT. Samples were centrifuged at 13000 rpm for 10 min and then loaded into a 26-well NuPAGER. Novex 4-12% Bis-Tris Midi Gel (Invitrogen. WG1403BOX) and run in NuPAGER MOPS SDS Running Buffer (Invitrogen. NP0001) for 180 minutes at 70 V into a XCell4 SureLock™ Midi-Cell Runner (Invitrogen. WR0100). Gel were transferred using the Invitrogen iBlot gel transfer device (Invitrogen. IB21001) and the nitrocellulose transfer stacks (Invitrogen, IB23001) with Program PO for 9 minutes. The membrane was then blocked with 5% bovin serum albumin for 1 hr at RT, then incubated with primary antibodies diluted in blocking buffer (LI-COR. 927-60001) and shake at 4° C., overnight. The primary antibodies were anti-BCL-xL antibody (CST. 2762:1:1000), anti-beta-actin (CST. 3700; 1:5000) and anti-GAPDH (CST. 97166:1:5000). Membranes were then washed three times with PBST for 15 minutes at RT. Secondary antibodies IR-Dye 680 CW Goat anti Mouse IgG (LI-COR. 926-68070) and IR-Dye 800 CW Goat anti Rabbit IgG (LI-COR. 926-32211) were diluted at a ratio of 1:10000 into PBST and membranes incubated for 1 hour at RT. Membranes were then washed three times with PBST for 15 minutes at RT. The western blot images were obtained using Odyssey Imaging System and quantified using Image Studio Lite Ver 5.2 software.
The letter codes for BCL-XL DC50 include: A (<0.01 μM); B (0.01-0.1 μM); C (>[…]); D (>0.5-1.0 μM); and E (>1.0 μM). The letter codes for Dmax % include A (>75%); B (50 to 75%); C (<50%).

T1 sequence (Q07817 whole entry): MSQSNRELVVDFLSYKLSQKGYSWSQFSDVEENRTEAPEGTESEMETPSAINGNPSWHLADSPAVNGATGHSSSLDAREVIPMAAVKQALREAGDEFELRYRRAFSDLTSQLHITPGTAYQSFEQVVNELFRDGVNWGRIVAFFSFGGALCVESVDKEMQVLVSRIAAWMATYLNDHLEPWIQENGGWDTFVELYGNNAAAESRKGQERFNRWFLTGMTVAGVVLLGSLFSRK

Dmax [%]	DC50 [µM]	SMILES
> 75	0.1 to 0.5	Cc1ncsc1-c1ccc(CNC(=O)[C@@H]2C[C@@H](O)CN2C(=O)[C@@H](NC(=O)C2(F)CC2)C(C)(C)C)c(OCCCCCC(=O)N(C)CCCc2cccc(F)c2OCCCc2sc(N3CCc4cccc(C(=O)Nc5nc6ccccc6s5)c4C3)nc2C(=O)O)c1 [I-13]
> 75	< 0.01	Cc1ncsc1-c1ccc([C@H](C)NC(=O)[C@@H]2C[C@@H](O)CN2C(=O)[C@@H](NC(=O)CCCCCS(=O)(=O)NC(=O)c2nc(N3CCc4cccc(C(=O)Nc5nc6ccccc6s5)c4C3)sc2CCCOc2ccc(C#CCN(C)C)cc2F)C(C)(C)C)cc1 [I-26]
< 50	> 1	Cc1ncsc1-c1ccc([C@H](C)NC(=O)[C@@H]2C[C@@H](O)CN2C(=O)[C@@H](NC(=O)CCc2cccc(F)c2OCCCc2sc(N3CCc4cccc(C(=O)Nc5nc6ccccc6s5)c4C3)nc2C(=O)O)C(C)(C)C)cc1 [I-30]
< 50	> 1	Cc1ncsc1-c1ccc([C@H](C)NC(=O)[C@@H]2C[C@@H](O)CN2C(=O)[C@@H](NC(=O)CCCN(C)C(=O)CCCCCc2ccc(N3CCc4cccc(C(=O)Nc5nc6ccccc6s5)c4C3)nc2C(=O)O)C(C)(C)C)cc1 [I-36, 6-(8-(benzo[d]thiazol-2-ylcarbamoyl)-3,4-dihydroisoquinolin-2 (1H)-yl)-3-(6-((4-(((S)-1-((2S,4R)-4-hydroxy-2-(((S)-1-(4-(4-methylthiazol-5-yl)phenyl)ethyl)carbamoyl)pyrrolidin-1-yl)-3,3-dimethyl-1-oxobutan-2-yl)amino)-4-oxobutyl)(methyl)amino)-6-oxohexyl)picolinic acid]
< 50	> 1	Cc1ncsc1-c1ccc([C@H](C)NC(=O)[C@@H]2C[C@@H](O)CN2C(=O)[C@@H](NC(=O)CCc2ccc(N3CCc4cccc(C(=O)Nc5nc6ccccc6s5)c4C3)nc2C(=O)O)C(C)(C)C)cc1 [I-40]

Continued, compound first:

SMILES	Dmax [%]	DC50 [µM]
Cc1ncsc1-c1ccc(CNC(=O)[C@@H]2C[C@@H](O)CN2C(=O)[C@@H](NC(=O)C2(F)CC2)C(C)(C)C)c(OCCCCCCCC(=O)N(C)CCCc2cccc(F)c2OCCCc2sc(N3CCc4cccc(C(=O)Nc5nc6ccccc6s5)c4C3)nc2C(=O)O)c1 [I-14]	> 75	0.1 to 0.5
Cc1ncsc1-c1ccc(CNC(=O)[C@@H]2C[C@@H](O)CN2C(=O)[C@@H](NC(=O)C2(F)CC2)C(C)(C)C)c(OCCCC(=O)N(C)CC#Cc2cccc(F)c2OCCCc2sc(N3CCc4cccc(C(=O)Nc5nc6ccccc6s5)c4C3)nc2C(=O)O)c1 [I-18]	50 to 75	> 1
Cc1ncsc1-c1ccc(CNC(=O)[C@@H]2C[C@@H](O)CN2C(=O)[C@@H](NC(=O)C2(F)CC2)C(C)(C)C)c(OCCCCCC(=O)N(C)CC#Cc2cccc(F)c2OCCCc2sc(N3CCc4cccc(C(=O)Nc5nc6ccccc6s5)c4C3)nc2C(=O)O)c1 [I-19]	< 50	> 1
Cc1ncsc1-c1ccc(CNC(=O)[C@@H]2C[C@@H](O)CN2C(=O)[C@@H](NC(=O)C2(F)CC2)C(C)(C)C)c(OCCCCCCCC(=O)N(C)CC#Cc2cccc(F)c2OCCCc2sc(N3CCc4cccc(C(=O)Nc5nc6ccccc6s5)c4C3)nc2C(=O)O)c1 [I-20]	> 75	0.1 to 0.5
Cc1ncsc1-c1ccc(CNC(=O)[C@@H]2C[C@@H](O)CN2C(=O)C(c2cc(OCCCC(=O)N3CCN(CC[C@H](CSc4ccccc4)Nc4ccc(S(=O)(=O)NC(=O)c5ccc(N6CCN(CC7=C(c8ccc(Cl)cc8)CCC(C)(C)C7)CC6)cc5)cc4S(=O)(=O)C(F)(F)F)CC3)no2)C(C)C)cc1 (stereo partly drawn) [I-38]	50 to 75	0.1 to 0.5
Cc1ncsc1-c1ccc([C@H](C)NC(=O)[C@@H]2C[C@@H](O)CN2C(=O)[C@@H](NC(=O)CCCC(=O)N2CCN(CC[C@H](CSc3ccccc3)Nc3ccc(S(=O)(=O)NC(=O)c4ccc(N5CCN(CC6=C(c7ccc(Cl)cc7)CCC(C)(C)C6)CC5)cc4)cc3S(=O)(=O)C(F)(F)F)CC2)C(C)(C)C)cc1 [I-86]	50 to 75	> 1
Cc1ncsc1-c1ccc(CNC(=O)[C@@H]2C[C@@H](O)CN2C(=O)C(c2cc(OCCCCCC(=O)N(C)CC#Cc3ccc(OCCCc4sc(N5CCc6cccc(C(=O)Nc7nc8ccccc8s7)c6C5)nc4C(=O)O)c(F)c3)no2)C(C)C)cc1 (stereo partly drawn) [I-87]	> 75	0.01 to 0.1
